Measurements: patent US11279733B2, “Peptide antibiotics” (priority 2017, dated 2022)
In brackets after ≈: the same amount, converted by molar mass. Like-named read-outs stand apart in the source and are kept apart here. Positions of bridges follow the written chain, without caps; N, C: chain ends. Non-standard residues stand in square brackets, D forms with d. Residues, ends and D or L forms follow the SMILES beside them. *: point of attachment. Decanoyl(3R-OH) = CCCCCCC[C@@H](O)CC(=O)*; dDab = NCC[C@@H](N)C(=O)O; X8 = CC(C)CCCC(C)CC(=O)*; dDap = NC[C@@H](N)C(=O)O; Dab = NCC[C@H](N)C(=O)O; Dap = NC[C@H](N)C(=O)O

What was measured:
[1] = system: A. baumannii GN_093 PmxR
Outline: (§1)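 Mid-log cultures grown in Mueller Hinton broth at 37° C were tested by 2-fold broth microdilution at 5×10^5 CFU/mL final. Compounds were dissolved in water and tested over a final range of 32 to 0.015 μg/mL.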

[2] = system: K. pneumoniae GN_102 PmxR
Outline: as §1

[3] = system: E. coli ATCC 25922
Outline: as §1

[4] = system: A. baumannii ATCC 19606
Outline: as §1

[5] = system: S. aureus ATCC 25923, MSSA
Outline: as §1

[6] = system: K. pneumoniae ATCC BAA-2146, NDM-1 pos
Outline: as §1

[7] = system: P. aeruginosa ATCC 27853
Outline: as §1

[8] = system: K. pneumoniae ATCC 700603, MDR
Outline: as §1

[9] = system: K. pneumoniae GN_106, PmxR
Outline: as §1

[10] = system: P. aeruginosa GN_043, PmxR
Outline: as §1

[11] = system: P. aeruginosa GN_105, PmxR
Outline: as §1

[12] = system: K. pneumoniae ATCC 13883
Outline: as §1

[13] = Cytotoxicity, HK2 LDH assay; conditions: human
Description: Cytotoxicity of the synthesised peptides was evaluated by comparison with commercially available colistin (polymyxin E), polymyxin B (Sigma chemical Co., St. Louis, Mo., U.S.A.) and synthetic octapeptin C4 by conducting lactate dehydrogenase (LDH) assay. CC50 values calculated based on curve fitting of dose dependent inhibition of cell growth represented the cytotoxicity of the peptide. Human kidney 2 (HK2) cells were seeded as 2000 cells per well in a 384 well cell culture plate in a final volume of 20 μL in DMEM/F12 medium (Invitrogen #11330057), in which 10% of FBS was added. Cells were incubated for 24 hours at 37° C., 5% CO2 to allow cells to attach to the plates. Similar conditions were employed for HEK293 and HepG2 cytotoxicity assays.
Colistin and polymyxin B were tested from a range of 2 mM to 0.9 μM. 120 μL of the 1 mM stock solutions in water of each synthesised peptide were freeze-dried and processed for LDH assay. After freeze-dry procedure, the compounds were reconstituted into 600 μM solutions using culture media. All tested compounds were diluted from 600 μM to 0.27 μM in 3-fold dilutions. Then 20 μL of each dilution was added into 20 uL of culture medium in quadruplicate to reach the final concentrations. The cells were incubated with the compounds for 24 h at 37° C., 5% CO2. After the incubation, 5 μL of culture medium was added to 50 μL of LDH assay buffer and incubated for 1 h at room temperature. The absorbance was read at 450 nm using Polarstar. The data was then analysed by Prism software. […] Nephrotoxicity Assessment in Human Proximal Tubule Cells.

Compound | MIC P. aeruginosa GN_043, PmxR ([10]; P. aeruginosa GN_043, PmxR) | CC50 at 24 h [13] | MIC A. baumannii GN_093 PmxR ([1]; GN 093 PmxR) | MIC K. pneumoniae GN_102 PmxR ([2]; GN 102 PmxR) | MIC E. coli ATCC 25922 ([3]; ATCC 25922) | MIC A. baumannii ATCC 19606 ([4]; ATCC 19606) | MIC S. aureus ATCC 25923, MSSA ([5]; ATCC 25923) | MIC K. pneumoniae ATCC BAA-2146, NDM-1 pos ([6]; ATCC BAA-2146) | MIC P. aeruginosa ATCC 27853 ([7]; ATCC 27853) | MIC K. pneumoniae ATCC 700603, MDR ([8]; ATCC 700603) | MIC K. pneumoniae GN_106, PmxR ([9]; GN 106, PmxR) | MIC P. aeruginosa GN_105, PmxR ([11]; GN 105, PmxR) | MIC K. pneumoniae ATCC 13883 ([12]; ATCC 13883) | also measured
CCCCCCC[C@@H](O)CC(=O)N[C@H](CCN)C(=O)N[C@H]1CCNC(=O)[C@H]([C@@H](C)O)NC(=O)[C@H](CN)NC(=O)[C@H](CCN)NC(=O)[C@H](CC(C)C)NC(=O)[C@@H](Cc2ccccc2)NC(=O)[C@H](CCN)NC1=O [compound 5386, 3(R)OH-nC9CO-D-Dab-cyc[L-Dab-L-Dab-D-Phe-L-Leu-L-Dab-L-Dap-L-Thr]] ({Decanoyl(3R-OH)}-[dDab][Dab][Dab][dF]L[Dab][Dap]T; lactam 2-C) | 1 µg/mL (≈ 0.982 µM) | 154 µM |  |  |  |  |  |  |  |  |  |  |  | MIC A. baumannii GN_093 PmxR ([1]; A. baumannii GN_093 PmxR): >32 µg/mL; MIC K. pneumoniae GN_102 PmxR ([2]; K. pneumoniae GN_102 PmxR): 32 µg/mL (≈ 31.4 µM); MIC E. coli ATCC 25922 ([3]; E. coli ATCC 25922): 2 µg/mL (≈ 1.96 µM); MIC A. baumannii ATCC 19606 ([4]; A. baumannii ATCC 19606): >32 µg/mL; MIC S. aureus ATCC 25923, MSSA ([5]; S. aureus ATCC 25923, MSSA): >32 µg/mL; MIC K. pneumoniae ATCC BAA-2146, NDM-1 pos ([6]; K. pneumoniae ATCC BAA-2146, NDM-1 pos): 4 µg/mL (≈ 3.93 µM); MIC P. aeruginosa ATCC 27853 ([7]; P. aeruginosa ATCC 27853): 4 µg/mL (≈ 3.93 µM); MIC K. pneumoniae ATCC 700603, MDR ([8]; K. pneumoniae ATCC 700603, MDR): 2 µg/mL (≈ 1.96 µM); MIC K. pneumoniae GN_106, PmxR ([9]; K. pneumoniae GN_106, PmxR): >32 µg/mL; MIC P. aeruginosa GN_105, PmxR ([11]; P. aeruginosa GN_105, PmxR): 4 µg/mL (≈ 3.93 µM); MIC K. pneumoniae ATCC 13883 ([12]; K. pneumoniae ATCC 13883): 16 µg/mL (≈ 15.7 µM)
CCCCCCC[C@@H](O)CC(=O)N[C@H](CCN)C(=O)N[C@H]1CCNC(=O)[C@H](Cc2ccccc2)NC(=O)[C@H](CN)NC(=O)[C@H](CCN)NC(=O)[C@H](CC(C)C)NC(=O)[C@@H](Cc2ccccc2)NC(=O)[C@H](CCN)NC1=O [compound 5385, 3(R)OH-nC9CO-D-Dab-cyc[L-Dab-L-Dab-D-Phe-L-Leu-L-Dab-L-Dap-L-Phe]] ({Decanoyl(3R-OH)}-[dDab][Dab][Dab][dF]L[Dab][Dap]F; lactam 2-C) |  | 41 µM | 16 µg/mL (≈ 15 µM) | 8 µg/mL (≈ 7.52 µM) | 4 µg/mL (≈ 3.76 µM) | 8 µg/mL (≈ 7.52 µM) | 8 µg/mL (≈ 7.52 µM) | 4 µg/mL (≈ 3.76 µM) | 2 µg/mL (≈ 1.88 µM) | 8 µg/mL (≈ 7.52 µM) | 16 µg/mL (≈ 15 µM) | 2 µg/mL (≈ 1.88 µM) | 4 µg/mL (≈ 3.76 µM) | MIC P. aeruginosa GN_043, PmxR ([10]; polymyxin-resistant): 2 µg/mL (≈ 1.88 µM)
CCCCCCC[C@@H](O)CC(=O)N[C@H](CN)C(=O)N[C@H]1CCNC(=O)[C@H]([C@@H](C)O)NC(=O)[C@H](CCN)NC(=O)[C@H](CCN)NC(=O)[C@H](CC(C)C)NC(=O)[C@@H](Cc2ccccc2)NC(=O)[C@H](CCN)NC1=O [compound 6395, 3(R)OH-nC9CO-D-Dap-cyc[L-Dab-L-Dab-D-Phe-L-Leu-L-Dab-L-Dab-L-Thr]] ({Decanoyl(3R-OH)}-[dDap][Dab][Dab][dF]L[Dab][Dab]T; lactam 2-C) | 2 µg/mL (≈ 1.96 µM) | > 300 µM | >32 µg/mL | 16 µg/mL (≈ 15.7 µM) | 2 µg/mL (≈ 1.96 µM) | 16 µg/mL (≈ 15.7 µM) | >32 µg/mL | 2 µg/mL (≈ 1.96 µM) | 2 µg/mL (≈ 1.96 µM) | 1 µg/mL (≈ 0.982 µM) | 32 µg/mL (≈ 31.4 µM) | 2 µg/mL (≈ 1.96 µM) | 8 µg/mL (≈ 7.86 µM) | 
CCCCCCC[C@@H](O)CC(=O)N[C@H](CCN)C(=O)N[C@H]1CCNC(=O)[C@H]([C@@H](C)O)NC(=O)[C@H](CCNC(=O)[C@@H](N)CCCNC(=N)N)NC(=O)[C@H](CCN)NC(=O)[C@H](CC(C)C)NC(=O)[C@@H](Cc2ccccc2)NC(=O)[C@H](CCN)NC1=O [compound 5603, 3(R)OH-nC9CO-D-Dab-cyc[L-Dab-L-Dab-D-Phe-L-Leu-L-Dab-L-Dab(L-Arg)-L-Thr]] ({Decanoyl(3R-OH)}-[dDab][Dab][Dab][dF]L[Dab][Dab](Arg)T; lactam 2-C) | 32 µg/mL (≈ 26.9 µM) | 103 µM | >32 µg/mL | >32 µg/mL | 32 µg/mL (≈ 26.9 µM) | >32 µg/mL | >32 µg/mL | >32 µg/mL | 8 µg/mL (≈ 6.73 µM) | 16 µg/mL (≈ 13.5 µM) | >32 µg/mL | 32 µg/mL (≈ 26.9 µM) | >32 µg/mL | 
CCCCCCC[C@@H](O)CC(=O)N[C@H](Cc1c[nH]c2ccccc12)C(=O)N[C@H]1CCNC(=O)[C@H]([C@@H](C)O)NC(=O)[C@H](CCN)NC(=O)[C@H](CCN)NC(=O)[C@H](CC(C)C)NC(=O)[C@@H](Cc2ccccc2)NC(=O)[C@H](CCN)NC1=O [compound 6394, 3(R)OH-nC9CO-D-Trp-cyc[L-Dab-L-Dab-D-Phe-L-Leu-L-Dab-L-Dab-L-Thr]] ({Decanoyl(3R-OH)}-[dW][Dab][Dab][dF]L[Dab][Dab]T; lactam 2-C) | >32 µg/mL | > 300 µM | >32 µg/mL | >32 µg/mL | >64 µg/mL | >64 µg/mL | >32 µg/mL | >64 µg/mL | 64 µg/mL (≈ 57.2 µM) | >64 µg/mL | >32 µg/mL | >32 µg/mL | >64 µg/mL | 
CCCCCCC[C@@H](O)CC(=O)N[C@H](CCN)C(=O)N[C@H]1CCNC(=O)[C@H](CC(=O)O)NC(=O)[C@H](CCN)NC(=O)[C@H](CCN)NC(=O)[C@H](CC(C)C)NC(=O)[C@@H](Cc2ccccc2)NC(=O)[C@H](CCN)NC1=O [compound 6513, 3(R)OH-nC9CO-D-Dab-cyc[L-Dab-L-Dab-D-Phe-L-Leu-L-Dab-L-Dab-L-Asp]] ({Decanoyl(3R-OH)}-[dDab][Dab][Dab][dF]L[Dab][Dab]D; lactam 2-C) |  | > 300 µM | >32 µg/mL | >32 µg/mL | >64 µg/mL | >64 µg/mL | >32 µg/mL | >64 µg/mL | 4 µg/mL (≈ 3.82 µM) | 64 µg/mL (≈ 61.2 µM) | >32 µg/mL | >32 µg/mL | >64 µg/mL | MIC P. aeruginosa GN_043, PmxR ([10]; polymyxin-resistant): 8 µg/mL (≈ 7.65 µM)
CC(C)CCCC(C)CC(=O)N[C@H](CCN)C(=O)N[C@H]1CCNC(=O)[C@H](CC(C)C)NC(=O)[C@H](CCN)NC(=O)[C@H](CCN)NC(=O)[C@H](Cc2ccccc2)NC(=O)[C@@H](CC(C)C)NC(=O)[C@H](CCN)NC1=O (stereo partly drawn) [compound 6515, 3,7-dimethyloctanoic acid-D-Dab-cyc[L-Dab-L-Dab-D-Leu-L-Phe-L-Dab-L-Dab-L-Leu]] (X8-[dDab][Dab][Dab][dL]F[Dab][Dab]L; lactam 2-C) | 2 µg/mL (≈ 1.94 µM) | 80 µM | 16 µg/mL (≈ 15.6 µM) | 16 µg/mL (≈ 15.6 µM) | 2 µg/mL (≈ 1.94 µM) | >32 µg/mL | 32 µg/mL (≈ 31.1 µM) | 8 µg/mL (≈ 7.78 µM) | 2 µg/mL (≈ 1.94 µM) | 4 µg/mL (≈ 3.89 µM) | 32 µg/mL (≈ 31.1 µM) | 2 µg/mL (≈ 1.94 µM) | 8 µg/mL (≈ 7.78 µM) | 
